Laboratory results published in ChEMBL document CHEMBL5247651, “Oxadiazolopyridine Derivatives as Efficacious Mitochondrial Uncouplers in the Prevention of Diet-Induced Obesity” (J Med Chem, 2023).
≈ marks a conversion by molar mass, not a printed value. Calls of active or inactive are those of the source. The rule behind the calls is not given here.

Key:
[1] = Half life in Swiss albino mouse at 10 mg/kg, po administered via gavage measured upto 24 hrs by LC/MS-MS analysis; type: ADME, organism-based; details: in vivo
[2] = Drug distribution in fasted C57BL/6j mouse liver at 10 mg/kg, po measured after 2 hrs by LC-MS/MS analysis; type: ADME, organism-based; details: in vivo
[3] = tested on: Mus musculus; experiment: Anti-obesity activity in high-fat diet induced obesity C57BL/6 mouse model assessed as increase in energy expenditure at 130 mg/kg, po measured upto 4 hrs by indirect calorimetric analysis; type: functional, organism-based
[4] = tested on: Mus musculus; experiment: Anti-obesity activity in C57BL/6j mouse assessed as decrease in serum glucose level at 130 mg/kg per day, po administered via gavage daily measured after 3 weeks; type: functional, organism-based
[5] = Solubility of compound at pH 7.4; type: physicochemical; details: buffer
[6] = Observed volume of distribution at steady state in C57BL/6 mouse at 1 mg/kg, iv measured upto 24 hrs by LC/MS-MS analysis; type: ADME, organism-based; details: in vivo, read-out: Vdss
[7] = Drug distribution in fasted C57BL/6j mouse brown adipose tissue at 130 mg/kg, po by LC-MS/MS analysis; type: ADME, organism-based; details: in vivo
[8] = tested on: Mus musculus; experiment: Anti-obesity activity in high-sugar western diet induced obesity C57BL/6j mouse model assessed as decrease in rectal temperature at 130 mg/kg per day, po administered via gavage daily measured after 1 hr at day 11; type: functional, organism-based
[9] = tested on: Mus musculus; experiment: Anti-obesity activity in C57BL/6j mouse assessed as effect on plasma free fatty acid level at 130 mg/kg per day, po administered via gavage daily measured after 3 weeks; type: functional, organism-based
[10] = Drug distribution in fasted C57BL/6j mouse […] white adipose tissue at 130 mg/kg, po by LC-MS/MS analysis; type: ADME, organism-based; details: in vivo
[11] = tested on: Mus musculus; experiment: Anti-obesity activity in high-sugar western diet induced obesity C57BL/6j mouse model assessed as decrease in insulin level at 130 mg/kg per day, po administered measured after 2 weeks; type: functional, organism-based
[12] = Induction of mitochondrial respiration in rat L6 cells assessed as fold increase in basal respiration at 25 uM followed by BAM15 addition; type: functional
[13] = tested on: Mus musculus; experiment: Anti-obesity activity in high-sugar western diet induced obesity C57BL/6j mouse model assessed as food consumption at 130 mg/kg per day, po administered for 14 days ( Rvb = 2.5 +/- 0.5 g/day per mouse); type: functional; details: time 14 day

t1/2 [1]: 4.4 h | Drug uptake [2]: Active | solubility [5]: 18.6 µM (≈ 5.92 µg/mL) | Vd [6]: 0.06 L/kg | Drug uptake [7]: Active | Drug uptake [10]: Active
SMILES: Oc1nc2nonc2cc1Nc1c(F)c(F)c(F)c(F)c1F
Activity [3]: Active | Activity [4]: Active | Activity [8]: Active | Activity [9]: inactive | Activity [11]: Active | fold change (FC) [12]: 3 | Activity [13]: 2.5 g/day
